According to patent publication US8664217B2, “Benzodiazepine compound and pharmaceutical composition” (Otsuka Pharmaceutical Co., Ltd., priority 2008, dated 2014):

melting point: 88.1 to 92.2 °C
SMILES: CCN1C(=O)C(C)(C)C(=O)N(C)c2cc(OCCCN(CCc3cccnc3)C(=O)c3ccncc3)ccc21 [Example 459, N-[3-(1-ethyl-3,3,5-trimethyl-2,4-dioxo-2,3,4,5-tetrahydro-1H-benzo[b][1,4]diazepin-7-yloxy)propyl]-N-(2-pyridin-3-ylethyl)isonicotinamide]
